Tests used:
[1] = system: hGCGR mice; assay: Combination treatment of GRAs with ezetimibe in hGCGR mice (Example 9); format: in vivo; conditions: for plasma total cholesterol: GRA alone 30 mpk QD for 9 days
Text: FIGS. 15A-B illustrate total plasma cholesterol (FIG. 15A) and cholesterol absorption (FIG. 15B) upon sub-chronic treatment of hGCGR mice with vehicle. GRA Compound A (30 mpk), ezetimibe (10 mpk), or Compound A (30 mpk)+ezetimibe (10 mpk) QD for 9 days.
FIGS. 16A-B illustrate total plasma cholesterol (FIG. 16A) and cholesterol absorption (FIG. 16B) upon sub-chronic treatment of hGCGR mice with vehicle, GRA Compound D (30 mpk), Compound E (30 mpk), Compound D (30 mpk)+ezetimibe (10 mpk), or Compound E (30 mpk)+ezetimibe (10 mpk) QD for 9 days.
A similar protocol was deployed in this part of work except ezetimibe was added to the combination treatment groups. Briefly, male hGCGR mice at ˜12 wks of age were treated with vehicle, ezetimibe@10 mpk, Compound A@30 mpk, Compound D@30 mpk, Compound E@30 mpk, Compound A@30 mpk+ezetimibe@10 mpk, Compound D@30 mpk+ezetimibe@10 mpk, Compound E@30 mpk+ezetimibe@10 mpk. Plasma total cholesterol, phytosterol, cholesterol absorption, and cholesterol synthesis were quantified using the same assays as described before.

[2] = system: hGCGR mice; assay: Dual tracer study for cholesterol absorption in hGCGR mice (Example 4); format: in vivo; conditions: 30 mpk QD for 9 days
Procedure: Male hGCGR mice at ˜12 wks of age maintained on chow or high cholesterol diet (n=8 group) were treated with vehicle and GRA Compound A@30 mpk QD for 9 days. Twenty four-hour feces before treatment and 3 days after treated were collected for fecal cholesterol characterization. On Day 4, mice were dosed with vehicle (0.5% MC, BID) or Compound A followed by administration with D6-cholesterol@15 mpk through p.o. and 13C-cholesterol@15 mpk through i.v. Blood was collected at 4, 24, 48, 72, and 96 h post injection by tail bleeding. For cholesterol synthesis, D2O was administered i.p. at 20 ml/kg on Day 7. On day 8, tail blood was collected for PK and mice were taken down for blood and liver collection. Plasma was isolated from blood by centrifuge at 8000 rpm for 5 min and submitted for GC/MS assay for cholesterol synthesis and absorption. Feces were sent to Taconic for fecal cholesterol assay. Asterisks denote statistical significance between treatment and vehicle groups. * p<0.05, **p<0.01, and ***p<0.001 by ANOVA.

[3] = system: hGCGR mice; assay: hGCGR mice, 5 day treatment with GRA Compound A and positive control LXR agonist (Example 2): plasma total cholesterol and LDL-c; format: in vivo; conditions: comparing with vehicle
Text: FIG. 6 illustrates plasma levels of total cholesterol and LDL-c in hGCGR mice following a 5 day treatment with GRA Compound A and positive control LXR agonist.
It is important to note that lipoprotein profiles of mouse and human are fundamentally different. In mice, the major lipoproteins are in HDL while in humans the main lipoproteins are in LDL-c. In preclinical studies, hGCGR mice were used as the model for in vivo study. Plasma level of total cholesterol was used as a more reliable parameter to indicate the effect of GRAS on cholesterol metabolism.

[4] = system: hGCGR mice; assay: Sub-chronic treatment of hGCGR mice with GRA (Example 1): plasma total cholesterol, phytosterols, lathosterol, cholesterol synthesis; format: in vivo; conditions: 30 mpk QD for 5 days, vs vehicle
Procedure: Male hGCGR mice (Transgenic Research, 8:295-302, 1999) at ˜12 wks of age maintained on chow diet were treated with vehicle and GRA Compounds A, B, and C at 30 mpk QD for 5 days (n=8). On Day 1, mice were administered the compounds followed by glucagon-induced glucose tolerance test. On Day 5, mice were fasted at 7:30 am. After dosing at ˜9:00 am, the blood glucose was measured at 2-h post dose with a glucometer; see FIG. 1. At 6-h post dose, the tail blood was collected for PK measurement. Mice were euthanized with CO2, and blood was collected by cardiac puncture. The liver was snap frozen in liquid nitrogen with a freezing clamp and saved in −80° C. Plasma was isolated by centrifuging the blood at 8000 rpm for 5 min. The plasma level of total cholesterol was measured by biochemical assay (Wako Chemicals Inc.). The plasma level of lathosterol and phytosterol was measured by LC/MS. To determine cholesterol synthesis. D2O was administered i.p. at 20 ml/kg on 24 h prior to takedown of the mice. The level of D2 in plasma water and plasma cholesterol was assayed by GC/MS for cholesterol synthesis. Asterisks denote statistical significance between treatment and vehicle groups.

[5] = system: hGCGR mice; assay: Sub-chronic study of Compound D in hGCGR mice: glucagon-induced glucose tolerance test and plasma phytosterols (Example 5); format: in vivo; conditions: 3 and 10 mpk, Day 1
Procedure: Male wild type and hGCGR mice on chow diet were treated with vehicle or GRA Compound D@3 and 10 mpk. On Day 1, mice were administered vehicle or Compound D followed by a glucagon-induced glucose tolerance test. On Day 5, mice were fasted at 7:30 am. After dosing at ˜9:00 am, blood glucose was measured at 2-h post dose with a glucometer. At 6-h post dose, tail blood was collected for a PK measurement. Mice were euthanized with CO2, and blood was collected by cardiac puncture. The liver was snap frozen in liquid nitrogen with a freezing clamp and saved in −80° C.
Plasma was isolated by centrifuging the blood at 8000 rpm for 5 min. Plasma level of total cholesterol was measured by an enzymatic colorimetric method (Wako Chemicals Inc.). Plasma levels of lathosterol and Phytosterol was measured by LC/MS.

[6] = system: type 2 diabetic patients; format: in vivo, human
Procedure: In phase 2b trial studies of Compound D, the average plasma levels of LDL-c in the placebo, Compound D@20, 40, 60, 80 mg, and metformin@2 g groups were 112.3, 117.7, 117.3, 110.0, 111.9, and 113.8 mg/dl at baseline, respectively. Plasma levels of LDL-c of the majority of the patients were within the normal range (≤130 mg/dl) according to the guideline of the American Heart Association and Mayo Clinic. After 12-week treatment, the average plasma levels of LDL-c were 105.4, 117.7, 123.2, 119.7, 126.6, and 111.1 mg/dl, respectively.
The following table illustrates the plasma levels of LDL-c in the patients in the phase 2b trial of Compound D. Type 2 diabetic patients with fasting glucose level of 140 to 240 mg/dl were recruited to the phase 2b trial of Compound D. After a 6-wk washout of any previous anti-hyperglycemic agents, patients were treated with placebo, Compound D QD@20, 40, 60, and 80 mg, and metformin BID@1 g for 12 wks. Values in bold are the percentage of patients on Day-1 and wk 12 less than or equal to the designated cutoff values at 130, 110, 100, and 70 mg/dl.
The baseline plasma level of LDL-c (Day -1) was plotted with the % change of LDL-c at week 12 from baseline.
In the 46 patients on Compound D@60 mg in the phase 2b trial, 14 patients were on statins during the 12-wk trial. […] LDL-c (despite the presence of the statin); see FIG. 17.

[7] = ezetimibe 10 mpk combined with Compound A, D or E 30 mpk, QD for 9 days

Compound: COc1ccc2cc(-c3cc(-c4cc(C(F)(F)F)ccc4F)nn3[C@@H](C)c3ccc(C(=O)NCCC(=O)O)cc3)ccc2c1 [Compound A]
- plasma total cholesterol [1]: significantly increased or tended to increase
- plasma total cholesterol [2]: significantly increased
- plasma level of LDL-c [3]: significantly increased
- plasma level of total cholesterol [3]: significantly increased
- plasma total cholesterol [4]: induced

Compound: Cc1cc(OC(CCC(F)(F)F)c2ccc(C(=O)NCCC(=O)O)cc2)cc(C)c1-c1ccc(C(C)(C)C)cc1 (stereo not shown) [Compound B, 3-{4-[1-(4′-tert-butyl-2,6-dimethyl-biphenyl-4-yloxy)-4,4,4-trifluoro-butyl]-benzoylamino}-propionic acid]
- plasma total cholesterol [4]: induced

Compound: Cc1cc(OC(CCC(C)(C)C)c2ccc(C(=O)NCCC(=O)O)cc2)cc(C)c1-c1ccc(C(F)(F)F)cc1 (stereo not shown) [Compound C, 3-{4-[1-(2,6-Dimethyl-4′-trifluoromethyl-biphenyl-4-yloxy)-4,4-dimethyl-pentyl]-benzoylamino}-propionic acid]
- plasma total cholesterol [4]: induced

Compound: COc1ccc2cc(-c3cc(-c4cc(Cl)cc(Cl)c4)nn3[C@@H](C)c3ccc(C(=O)NCCC(=O)O)cc3)ccc2c1 [Compound D, N-(4-{(1S)-1-[3-(3,5-dichlorophenyl)-5-(6-methoxy-2-naphthyl)-1H-pyrazol-1-yl]ethyl}benzoyl)-β-alanine]
- plasma total cholesterol [1]: significantly increased or tended to increase
- glucagon-induced glucose excursion [5]: suppressed
- blood glucose levels ([6]; 60 mg, 12-wk trial, in most patients): substantial reduction

Compound: CCC[C@H](c1ccc(C(=O)NCCC(=O)O)cc1)[C@H](c1ccc(Cl)cc1)c1c[nH]c2c(F)cc(C)cc12 [Compound E, N-(4-{(1S)-1-[(R)-(4-chlorophenyl)(7-fluoro-5-methyl-1H-indol-3-yl)methyl]butyl}benzoyl)-β-alanine]
- plasma total cholesterol [1]: significantly increased or tended to increase

Compound: O=S(=O)(c1ccccc1)N(CC(F)(F)F)c1ccc(C(O)(C(F)(F)F)C(F)(F)F)cc1 [Compound T, reference compound]
- plasma level of LDL-c [3]: significantly increased
- plasma level of total cholesterol [3]: significantly increased

Compound: CN(C)C(=N)N=C(N)N [Metformin, metformin, reference compound]
- average plasma level of LDL-c ([6]; human, in vivo): 113.8 mg/dL
- increase of LDL-c after 12-week treatment ([6]; human, in vivo): 2.2%
- percentage of patients with plasma LDL-c less than or equal to 110 mg/dl ([6]; human, in vivo): 54.2 percentage
- percentage of patients with plasma LDL-c less than or equal to 130 mg/dl ([6]; human, in vivo): 70.8 percentage

Compound: O=C1[C@H](CC[C@H](O)c2ccc(F)cc2)[C@@H](c2ccc(O)cc2)N1c1ccc(F)cc1 [ezetimibe, reference compound]
- induction of cholesterol absorption caused by GRAs [1, 7]: prevented the induction
- induction of total cholesterol caused by GRAs [1, 7]: prevented the induction
